The target of assay [1] is T1, interaction between Tat and cyclin T1 (Human immunodeficiency virus type 1 group M subtype B, UniProt P04608).
T1 construct: expressed in transfected cells; the methods paragraph b60 says 293T
The assay is described as follows: Co-immunoprecipitation of Tat and cyclin T1. Format: cell-based. The note with it: co-immunoprecipitation in transfected cells. As to the method: The co-immunoprecipitation assay was performed as previously described ([12], [58]). Briefly, 293T cells were transfected with Tat-expressing plasmids (pcDNA3–Flag–Tat86) using Lipofectamine 2000 (Invitrogen). After 48 h, the cells were lysed in an immunoprecipitation buffer [250 mM NaCl, 0.5% NP-40, 50 mM Tris-HCl (pH 7.5), 5 mM ethylenediaminetetraacetic acid, and protease/phosphatase inhibitor cocktail]. The cell lysates were subsequently incubated with an anti-Flag monoclonal antibody (M2; Sigma-Aldrich) at 4°C. After overnight incubation, the immune complex was then pulled down with protein A/G-agarose beads (Santa Cruz Biotechnology) and analyzed using western blotting.
Supplementary Figure S6. A. Quantitativereal-timePCRofHIV-1mRNAfromHIV-1 NL4-3-infectedA3.01cells treated oruntreatedwiththeindicatedcompoundswasperformedusingthe envprimerset,andlevelswerenormalizedtothoseof gapdh. Thedata
represent the relative fold change compared with DMSO treatment (n = 3).B. Effect of the compounds on NF-κB promoter activity assessed using a luciferase assay. […]
pCMV-R-Luc (200 ng). […] Theluciferase activity was determined using aDual-GloTMLuciferase assaykit (Promega).
The data normalized to the R-Luc activity are expressed as themean±SD (n = 3) of the relative fold activitycompared with the no-PMA(vehicle) treatment.C. […]

For another assay, the system named is HIV-1NL4-3. Put plainly: HIV-1 infectivity in TZM-bl cells (β-gal activity). Format: cell-based. The note with it: Human immunodeficiency virus 1, TZM-bl, 48 h, read-out: EC50 (β-gal).

Each structure is given as a SMILES string.

T1 sequence (P04608 whole entry): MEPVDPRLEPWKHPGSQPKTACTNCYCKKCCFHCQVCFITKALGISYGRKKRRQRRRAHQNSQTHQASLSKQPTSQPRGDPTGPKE
Method for HIV-1NL4-3: (C) TZM-bl cells were infected with the HIV-1NL4-3 strain at an MOI of 1 upon treatment of compounds. At 48 h after infection, the viral infectivity and cell viability were determined as described above (Fig. 1). […] (E) TZM-bl cells were infected with the HIV-1NL4-3 at an MOI of 1 upon compound 13. At 48 h after infection, the β-gal activity indicating viral infectivity was determined using the β-gal Enzyme Assay kit. […] (C and E) The dose-response curves show the relative activity compared with that of the DMSO vehicle (mean ± SD; n = 3).
The TZM-bl cells (also referred to as JC53BL-13) expressing human CD4, CXCR4, and CCR5 carrying the F-Luc and lacZ genes downstream of the HIV-1 LTR promoter ([60]) were used to determine the inhibitory effect of the compounds on HIV-1 infection, as previously described ([11], [12], [61]). In brief, 1 × 10^4 cells were cultured in 96-well plates for 24 h and subsequently treated with compounds at the indicated concentrations. […] After 48 h, the inhibitory effect of the compounds was determined using a Bright Glo luciferase assay kit (Promega) or β-Galactosidase Enzyme Assay kit (Promega). […] Cell viability was determined using the resazurin-based PrestoBlue Cell Viability Reagent (Thermo Fisher Scientific, Waltham, MA, USA) following the manufacturer’s instructions.

Take `Cc1[nH]c2ccc(-c3nnc(SCC(=O)N4CCCCC4)o3)cc2c1C` [Compound 9, 2-((5-(2,3-Dimethyl-1H-indol-5-yl)-1,3,4-oxadiazol-2-yl)thio)-1-(piperidin-1-yl)ethan-1-one]: in assay [1], the “change in interaction between Tat and cyclin T1” value is listed as “no changes were observed”.
Regarding `Cc1[nH]c2ccc(-c3nnc(SCC(=O)N4CCCC4)o3)cc2c1C` [Compound 13, 2-((5-(2,3-Dimethyl-1H-indol-5-yl)-1,3,4-oxadiazol-2-yl)thio)-1-(pyrrolidin-1-yl)ethan-1-one], the 50% effective concentration (EC50) – broadly, the concentration giving half of the maximal effect – in the assay with HIV-1NL4-3 was 0.22 ± 0.03 µM. Also, in assay [1], the “change in interaction between Tat and cyclin T1” value is “no changes were observed”.
